According to paper PMC8765437, “GSK3640254 Is a Novel HIV-1 Maturation Inhibitor with an Optimized Virology Profile” (Antimicrobial Agents and Chemotherapy, 2022):
Like-named read-outs stand apart in the source and are kept apart here.

Test system: NLRepRlucP373S viruses containing Gag SDMs or gag/pr genes from clinical isolates
Test: Multiple-cycle replication assay, NLRepRluc reporter viruses in MT-2 cells, luciferase endpoint
Type: cell-based, HIV-1
Source text: Multiple-cycle assays using recombinant viruses or clinical isolates were used to assess MI antiviral activity as described previously ([10]). pNLRepRlucP373S (the P373S change is in the Gag gene and converts an outlier polymorphism in the NL4-3 gene to the prevalent amino acid in the population) plasmids containing SDMs in Gag or gag/pr regions from clinical isolates were transfected into HEK 293T cells, and the supernatant containing recombinant virus was harvested after 4 to 5 days. Virus was used to infect MT-2 cells in the presence of a 3-fold serially diluted compound at a final dimethyl sulfoxide (DMSO) concentration of 1%. The inocula of the reporter viruses were determined based on the luciferase activity detected on day 4 postinfection. The MOI (ratio of infectious virions to target cells) of reporter-free laboratory strains and clinical isolates was 0.005, as derived from a tissue culture infectious dose study. Clinical isolates or reporter-free viruses were examined in the reporter CEM-NKR-CCR5-Luc cells or PBMCs at MOIs ranging from 0.005 to 0.01. Each infection started with a drug-free preincubation of the cell-virus mixtures, performed at 37°C and 5% CO2 for either 1 h at 2 times the final cell density (reporter viruses) or 1 h (reporter-free laboratory strains) or 3 h (clinical isolates) using cell pellets in 0.5 mL of medium. After preincubation, cell-virus mixtures were added to compound-containing 96-well plates for a final cell density of either 10,000 (MT-2 cells for reporter viruses), 20,000 (MT-2 and PM1 cells for reporter-free laboratory strains), 200,000 (PBMCs for clinical isolates), or 500,000 (CEM-NKR-CCR5-Luc for reporter-free laboratory strains) cells per well. The CEM-NKR-CCR5-Luc cell assay was performed in the presence of Polybrene (10 μg/mL). Virus growth was determined on days 4 to 5 postinfection for reporter variants or days 5 to 11 for the other viruses. The reporter viruses were detected by a luciferase assay according to manufacturer protocols (Brite-Glo luciferase kit [Promega] for CEM-NKR-CCR5-Luc cells and Dual-Luciferase Reporter 1000 assay system [Promega] for the other cells), and luminescence was detected on a Wallac Trilux. The growth of clinical isolates in PBMCs was quantitated by reverse transcriptase activity in a 96-well scintillation proximity assay (SPA). Twenty microliters of culture supernatants was mixed with 40 μL of reaction cocktail (62.5 mM Tris-HCl [pH 7.8], 100 mM KCl, 0.0625% NP-40, 2.5 mM dithiothreitol [DTT], 6.25 mM MgCl2, 1 mM EGTA, 6.25 μg/mL of poly rA, 2.5 μg/mL of streptavidin SPA beads prebound with biotinylated-dT12-18, and 1 μCi of [^3H]TTP). Mixtures were incubated at 37°C for ∼3 h and quenched with 100 μl of 0.25 M EDTA per well. Luminescence was detected on a Wallac Trilux programmed for tritium counting with SPA beads in opaque plates. The growth of the reporter-free laboratory M-tropic strains and clinical isolates was monitored by a p24 enzyme-linked immunosorbent assay (ELISA; PerkinElmer Life Sciences, Waltham, MA) performed on culture supernatants. […] A 1:1,000 dilution of cell supernatant in PBS was generally observed to fall in the dynamic range of the endpoint signal.
Maximal percent inhibition values were calculated as MPI = 100 – (mean signals at the 2 highest concentrations of compound/mean signal of 2 no-drug control wells) × 100.

With `C=C(C)[C@@H]1CC[C@]2(NCCN3CCS(=O)(=O)CC3)CC[C@]3(C)[C@H](CC[C@@H]4[C@@]5(C)CC=C(c6ccc(C(=O)O)cc6)C(C)(C)[C@@H]5CC[C@]43C)[C@@H]12` [GSK’795, reference compound] the EC90 (Human immunodeficiency virus 1, MT2, read-out: PBA EC90, subtype B gag/pr 1000156 (V362I)) was 600 nM, the EC90 (Human immunodeficiency virus 1, MT2, read-out: PBA EC90, subtype B gag/pr 1900120 (V370M)) was 6000 nM and the EC90 (Human immunodeficiency virus 1, MT2, read-out: PBA EC90, subtype B gag/pr 1900140 (V362I)) was 1930 nM. It also gave an EC90 (Human immunodeficiency virus 1, MT2, read-out: PBA EC90, subtype C gag/pr 93MW690) of 1370 nM, an EC90 (Human immunodeficiency virus 1, MT2, read-out: PBA EC90, subtype C gag/pr 97ZA003) of 2400 nM and an EC90 (Human immunodeficiency virus 1, MT2, read-out: PBA EC90, subtype C gag/pr 98CN009) of 1870 nM. The EC90 (Human immunodeficiency virus 1, MT2, read-out: PBA EC90, subtype C gag/pr 98IN026) was 70 nM, the EC90 (Human immunodeficiency virus 1, MT2, read-out: PBA EC90, subtype C gag/pr 10215-6) was 12000 nM and the EC90 (Human immunodeficiency virus 1, MT2, read-out: PBA EC90, subtype C gag/pr 11657-3) was 400 nM. It also gave an EC90 (Human immunodeficiency virus 1, MT2, read-out: PBA EC90, subtype C gag/pr 20635-4) of 1700 nM, an EC90 (Human immunodeficiency virus 1, MT2, read-out: PBA EC90, subtype C gag/pr 20706-3) of 370 nM and an EC90 (Human immunodeficiency virus 1, MT2, read-out: PBA EC90, subtype C gag/pr 1300495) of 2270 nM. It also gave an EC90 (Human immunodeficiency virus 1, MT2, read-out: PBA EC90, subtype C gag/pr 1700141) of 370 nM, an EC90 (Human immunodeficiency virus 1, MT2, read-out: PBA EC90, subtype C gag/pr 1900543) of 280 nM and an EC90 (Human immunodeficiency virus 1, MT2, read-out: PBA EC90: Mean, minilibrary of HIV-1 polymorphisms, Fig. 1B, GSK’795 mean without 3 viruses lacking measurable EC90) of 44800 nM. For the same compound, the EC50 (Human immunodeficiency virus 1, MT2, subtype B gag/pr 4NRR (Wild-type)) was 1 nM, the EC50 (Human immunodeficiency virus 1, MT2, subtype B gag/pr 28-MDR (Wild-type)) was 6 nM and the EC50 (Human immunodeficiency virus 1, MT2, subtype B gag/pr 92BR014 (V370M)) was 4 nM. It also gave an EC50 (Human immunodeficiency virus 1, MT2, subtype B gag/pr 92BR018 (V, QAΔ)) of 3 nM, an EC50 (Human immunodeficiency virus 1, MT2, subtype B gag/pr 92TH014 (V362I)) of 5 nM and an EC50 (Human immunodeficiency virus 1, MT2, subtype B gag/pr 92TH026 (V362I)) of 10 nM. For the same compound, the EC50 (Human immunodeficiency virus 1, MT2, subtype B gag/pr 92US072 (V362I)) was 3 nM, the EC50 (Human immunodeficiency virus 1, MT2, subtype B gag/pr 92US729 (Wild-type)) was 1 nM and the EC50 (Human immunodeficiency virus 1, MT2, subtype B gag/pr 93BR008 (V362I)) was 4 nM. The EC50 (Human immunodeficiency virus 1, MT2, subtype B gag/pr 93BR009 (V370M)) was 2 nM, the EC50 (Human immunodeficiency virus 1, MT2, subtype B gag/pr 93BR017 (V, QAΔ)) was 16 nM and the EC50 (Human immunodeficiency virus 1, MT2, subtype B gag/pr 93BR022 (V, QAΔ)) was 10 nM. The EC50 (Human immunodeficiency virus 1, MT2, subtype B gag/pr 93BR024 (V362I)) was 54 nM, the EC50 (Human immunodeficiency virus 1, MT2, subtype B gag/pr 93TH0647 (V362I)) was 3 nM and the EC50 (Human immunodeficiency virus 1, MT2, subtype B gag/pr 93US141 (V362I)) was 9 nM. For the same compound, the EC50 (Human immunodeficiency virus 1, MT2, subtype B gag/pr 93US155 (V370T)) was 5 nM, the EC50 (Human immunodeficiency virus 1, MT2, subtype B gag/pr 411-1-C (Wild-type)) was 1 nM and the EC50 (Human immunodeficiency virus 1, MT2, subtype B gag/pr 220162 (Wild-type)) was 5 nM. It also gave an EC50 (Human immunodeficiency virus 1, MT2, subtype B gag/pr 400024 (V370M)) of 19 nM, an EC50 (Human immunodeficiency virus 1, MT2, subtype B gag/pr 400051 (V370A)) of 2 nM and an EC50 (Human immunodeficiency virus 1, MT2, subtype B gag/pr 1000156 (V362I)) of 9 nM. The EC50 (Human immunodeficiency virus 1, MT2, subtype B gag/pr 1900120 (V370M)) was 8 nM, the EC50 (Human immunodeficiency virus 1, MT2, subtype B gag/pr 1900140 (V362I)) was 3 nM and the EC50 (Human immunodeficiency virus 1, MT2, subtype C gag/pr 93MW690) was 10 nM. It also gave an EC50 (Human immunodeficiency virus 1, MT2, subtype C gag/pr 97ZA003) of 6 nM, an EC50 (Human immunodeficiency virus 1, MT2, subtype C gag/pr 98CN009) of 11 nM and an EC50 (Human immunodeficiency virus 1, MT2, subtype C gag/pr 98IN026) of 3 nM. The EC50 (Human immunodeficiency virus 1, MT2, subtype C gag/pr 10215-6) was 7 nM, the EC50 (Human immunodeficiency virus 1, MT2, subtype C gag/pr 11657-3) was 6 nM and the EC50 (Human immunodeficiency virus 1, MT2, subtype C gag/pr 20706-3) was 4 nM. For the same compound, the EC50 (Human immunodeficiency virus 1, MT2, subtype C gag/pr 1300495) was 22 nM, the EC50 (Human immunodeficiency virus 1, MT2, subtype C gag/pr 1700141) was 8 nM and the EC50 (Human immunodeficiency virus 1, MT2, subtype C gag/pr 1900543) was 7 nM. The MPI (SDM A326T/V362I/V370A) was 6%, the MPI (SDM A364V) was 16% and the MPI (SDM R361K/V362I/L363M) was 68%. The MPI (SDM T332S/V362I/prR41G) was 65%, the MPI (SDM V362I/V370A) was 31% and the MPI (SDM V370A) was 84%. The MPI (SDM Wild type) was 94%, the MPI (SDM ΔV370) was 87% and the EC50 (read-out: EC50 (range), Subtype B gag/pr viruses, n=24) was 1 to 1400 nM.
